Legend:
[1] = tested on: human T lymphocytes; conditions: Kim K. et al., Immunology 2002; cited from earlier work
[2] = tested on: HUT78 human TCL cells; assay: Dose-dependent effects on CD137L protein surface expression (flow cytometry); format: cell-based; conditions: for regulation of CD137L protein surface expression, HUT78 Protein: summary Table 3; for CD137L protein surface expression: HUT78 cells, dose range, 24 hours; on regulation of CD137L protein surface expression, HUT78 Protein: key: 'Y' indicates the treatment caused upregulation; 'N' indicates the treatment did not cause upregulation
Procedure: HUT78 cells, cultured in 6-well plates in RPMI-1640 medium containing 20% fetal bovine serum (FBS), were treated with a dose range of Romidepsin (0-0.1 μM), Bortezomib (0-1.0 μM), Belinostat (0-1.0 μM), Chidamide (0-3.0 μM), or Vincristine (0-0.03 μM) for 24 hours. Cells (1×10^5) were washed twice in Dulbecco's Phosphate Buffered Saline (DPBS), stained with either Phycoerythrin (PE)-conjugated Isotype Control (Biolegend catalog #400112) and anti-human-CD137L (Biolegend catalog #311504) antibodies (1 μL antibody in 100 μL DPBS, FIG. 5A-5E) or PE-Cy7-conjugated Isotype Control (Thermofisher catalog #25-4714-80) and anti-human-CD137L (Thermofisher catalog #25-5906-42) antibodies (1 μL antibody in 100 μL DPBS, FIG. 5F-5H) at 4° C. for 30 minutes, washed twice in DPBS, and resuspended in 100 μL DPBS for flow cytometry analysis.

[3] = tested on: HUT78 human TCL cells; assay: Time-dependent effects on CD137L protein surface expression (flow cytometry); format: cell-based; conditions: 0.003 μM Romidepsin or 0.01 μM Bortezomib, 2, 6, 16 or 24 hours
Procedure: HUT78 cells, cultured in 6-well plates in RPMI-1640 medium containing 20% FBS, were treated with 0.003 μM Romidepsin or 0.01 μM Bortezonib for 2, 6, 16, or 24 hours. Cells (1×103) were washed twice in DPBS, stained with PE-conjugated Isotype Control (Biolegend catalog #400112) and anti-human-CD137L (Biolegend catalog #311504) antibodies (1 μL antibody in 100 μL DPBS) at 4° C. for 30 minutes, washed twice in DPBS, and resuspended in 100 μL DPBS for flow cytometry analysis.

[4] = tested on: HUT102 human TCL cells; assay: mRNA expression, QuantiGene Plex assay, HUT102; format: cell-based; conditions: for regulation of CD137L mRNA expression, HUT102 mRNA: summary Table 3; for CD137L mRNA expression / CD274 mRNA expression / CD137 mRNA expression: HUT102 cells, dose range, 24 hours; on regulation of CD137L mRNA expression, HUT102 mRNA: key: 'Y' indicates the treatment caused upregulation; 'N' indicates the treatment did not cause upregulation
Procedure: (§1) HUT102, HUT78, and SU-DHL1 cells, cultured in 96-well plates, were treated with a dose range of Romidepsin (0-0.1 μM), Bortezomib (0-1.0 μM), Belinostat (0-10.0 μM), or Vincristine (0-0.03 μM) for 24 hours. Cells were lysed with Lysis Buffer and cell lysates were used for the QuantiGene Plex assay (7-gene multiplex (CD80, CD86, CD274, CD137, CD137L, HPRT1, GAPDH))

[5] = tested on: HUT78 human TCL cells; assay: mRNA expression, QuantiGene Plex assay, HUT78; format: cell-based; conditions: for regulation of CD137L mRNA expression, HUT78 mRNA: summary Table 3; for CD137L mRNA expression: HUT78 cells, dose range, 24 hours; on regulation of CD137L mRNA expression, HUT78 mRNA: key: 'Y' indicates the treatment caused upregulation; 'N' indicates the treatment did not cause upregulation
Procedure: as §1

[6] = tested on: SU-DHL1 human TCL cells; assay: mRNA expression, QuantiGene Plex assay, SU-DHL1; format: cell-based; conditions: for regulation of CD137L mRNA expression, SU-DHL1 mRNA: summary Table 3; on regulation of CD137L mRNA expression, SU-DHL1 mRNA: key: 'Y' indicates the treatment caused upregulation; 'N' indicates the treatment did not cause upregulation
Procedure: as §1

[7] = tested on: HUT78 human TCL cells; assay: Cell viability of HUT78 cells (CellTiter-Glo); format: cell-based; conditions: dose range, 24 hours
Procedure: HUT78 cells, cultured in 96-well plates in RPMI-1640 medium containing 20% fetal bovine serum (FBS), were treated with a dose range of Romidepsin (0-0.1 μM), Bortezomib (0-1.0 μM), or Chidamide (0-3.0 μM) for 24 hours. The CellTiter-Glo assay (Promega) was used to assess cell viability according to the manufacturer's instructions.

[8] = tested on: purified human T cells; assay: Cell viability of purified human T cells (CellTiter-Glo); format: cell-based; conditions: dose range, 24 hours
Procedure: T cells were purified from human PBMCs (>95% purity, data not shown), cultured in 96-well plates in RPMI-1640 medium containing 10% fetal bovine serum (FBS), and treated with a dose range of Romidepsin (0-0.1 μM), Bortezomib (0-1.0 μM), or Chidamide (0-3.0 μM) for 24 hours. The CellTiter-Glo assay (Promega) was used to assess cell viability according to the manufacturer's instructions.

[9] = tested on: A20 B cell lymphoma cells; format: in vivo, BALB/c mice; conditions: ADG106 5 mg/kg twice a week for 4 doses; Bendamustine 12.5 mg/kg once a day for 4 doses; intraperitoneal
Procedure: BALB/c mice (n=8 per group, female, 6-8 weeks old) were transplanted subcutaneously with 5×10^5 A20 B cell lymphoma cells. After tumors were established (i.e., having reached a volume of 100 mm^3), mice were treated with vehicle, ADG106 (5 mg/kg, twice a week for 4 doses by intraperitoneal injection), Bendamustine (12.5 mg/kg, once a day for 4 doses by intraperitoneal injection), or ADG106 (5 mg/kg, twice a week for 4 doses by intraperitoneal injection) in combination with Bendamustine (12.5 mg/kg, once a day for 4 doses by intraperitoneal injection). Tumor growth was monitored twice weekly and reported as mean tumor volume±SEM over time.

[10] = SU-DHL1 cells, dose range, 24 hours

Compound: COc1cccc2c1C(=O)c1c(O)c3c(c(O)c1C2=O)C[C@@](O)(C(=O)CO)C[C@@H]3O[C@H]1C[C@H](N)[C@H](O)[C@H](C)O1 [doxorubicin]
- expression of CD137 in human T lymphocytes [1]: induce expression of CD137

Compound: CC(C)C[C@H](NC(=O)[C@H](Cc1ccccc1)NC(=O)c1cnccn1)B(O)O [Bortezomib, bortezomib]
- regulation of CD137L protein surface expression, HUT78 Protein [2]: Y
- CD137L protein surface expression [2]: dose-dependent upregulation
- CD137L protein surface expression over time [3]: time-dependent upregulation
- regulation of CD137L mRNA expression, HUT102 mRNA [4]: Y
- CD137L mRNA expression [4]: dose-dependent upregulation
- CD274 mRNA expression [4]: induced
- regulation of CD137L mRNA expression, HUT78 mRNA [5]: N
- CD137L mRNA expression [5]: not
- regulation of CD137L mRNA expression, SU-DHL1 mRNA [6]: Y
- CD137L mRNA expression [6, 10]: dose-dependent upregulation
- cell viability of HUT78 human TCL cells [7]: inhibited cell viability
- viability of purified human T cells [8]: minimal or no effect

Compound: CC[C@]1(O)C[C@H]2CN(CCc3c([nH]c4ccccc34)[C@@](C(=O)OC)(c3cc4c(cc3OC)N(C=O)[C@H]3[C@@](O)(C(=O)OC)[C@H](OC(C)=O)[C@]5(CC)C=CCN6CC[C@]43[C@@H]65)C2)C1 [Vincristine, vincristine]
- regulation of CD137L protein surface expression, HUT78 Protein [2]: N
- CD137L protein surface expression [2]: did not show upregulation
- regulation of CD137L mRNA expression, HUT102 mRNA [4]: Y
- CD137L mRNA expression [4]: induced upregulation
- CD137 mRNA expression [4]: induced
- regulation of CD137L mRNA expression, HUT78 mRNA [5]: N
- CD137L mRNA expression [5]: not
- regulation of CD137L mRNA expression, SU-DHL1 mRNA [6]: N
- CD137L mRNA expression [6, 10]: not

Compound: C/C=C1\NC(=O)[C@H]2CSSCC/C=C/[C@H](CC(=O)N[C@H](C(C)C)C(=O)N2)OC(=O)[C@H](C(C)C)NC1=O [Romidepsin, romidepsin]
- regulation of CD137L protein surface expression, HUT78 Protein [2]: Y
- regulation of CD137L mRNA expression, HUT102 mRNA [4]: Y
- regulation of CD137L mRNA expression, HUT78 mRNA [5]: Y
- regulation of CD137L mRNA expression, SU-DHL1 mRNA [6]: Y

Compound: O=C(/C=C/c1cccc(S(=O)(=O)Nc2ccccc2)c1)NO [Belinostat, belinostat]
- regulation of CD137L protein surface expression, HUT78 Protein [2]: Y
- CD137L protein surface expression [2]: dose-dependent upregulation
- regulation of CD137L mRNA expression, HUT102 mRNA [4]: Y
- CD137L mRNA expression [4]: dose-dependent upregulation
- CD137 mRNA expression [4]: induced
- CD274 mRNA expression [4]: induced
- regulation of CD137L mRNA expression, HUT78 mRNA [5]: Y
- CD137L mRNA expression [5]: dose-dependent upregulation
- regulation of CD137L mRNA expression, SU-DHL1 mRNA [6]: Y
- CD137L mRNA expression [6, 10]: dose-dependent upregulation
- CD137 mRNA expression [6, 10]: induced

Compound: CO[C@@]12[C@H](COC(N)=O)C3=C(C(=O)C(C)=C(N)C3=O)N1C[C@@H]1N[C@@H]12 [Mitomycin, mitomycin]
- expression of CD137 in human T lymphocytes [1]: induce expression of CD137

Compound: Nc1cc(F)ccc1NC(=O)c1ccc(CNC(=O)/C=C/c2cccnc2)cc1 [Chidamide, chidamide]
- regulation of CD137L protein surface expression, HUT78 Protein [2]: Y

Compound: Cn1c(CCCC(=O)O)nc2cc(N(CCCl)CCCl)ccc21 [Bendamustine, bendamustine]
- tolerability in mice as monotherapies [9]: well tolerated

Compound: bleomycin
- expression of CD137 in human T lymphocytes [1]: induce expression of CD137

Compound: ADG106: anti-CD137 antibody; heavy chain SEQ ID NO: 10, light chain SEQ ID NO: 11; used as mouse IgG1 in Example 10
- tolerability in mice as monotherapies [9]: well tolerated
